According to article PMC11212140, “Molecular Bidents with Two Electrophilic Warheads as a New Pharmacological Modality” (ACS Central Science, 2024):

Legend:
Assay in all cases: KiNativ profiling in H3255 cells
Assay type in all cases: cell-based, human
[1] = tested on: T1, CASK; conditions: 2.5 µM; Lys1; ETGQQFAVKIVDVAK
T1 construct: purchased ActivX Biosciences (KiNativ)
Description: (§1) H3255 cells were plated with 6.5x10^6 per condition in fresh media in 15 cm plates and treated the 80% confluency for 2 hours with DMSO or 2.5 μM of ZNL-0056. To harvest cells, plates were washed 3 times with cold PBS, then collected by scraping into 4 mL of cold PBS containing protease and phosphatase inhibitors. Cells were pelleted by centrifugation at 1350 g at 4 ℃ for 5 minutes and immediately frozen in liquid nitrogen. The frozen samples were sent to ActivX Biosciences (La Jolla, CA) for the remainder of the KiNativ profiling experiment4. […]

[2] = tested on: T2, MAP2K4; conditions: 2.5 µM
T2 construct: purchased ActivX Biosciences (KiNativ)
Description: as §1

[3] = tested on: T3, TBK1; conditions: 2.5 µM; Lys1; TGDLFAIKVFNNISFLRPVDVQMR
T3 construct: purchased ActivX Biosciences (KiNativ)
Description: as §1

[4] = tested on: T4, CDK4; conditions: 2.5 µM; Lys2; DLKPENILVTSGGTVK
T4 construct: purchased ActivX Biosciences (KiNativ)
Description: as §1

[5] = tested on: T5, MST3; conditions: 2.5 µM; Lys2; DIKAANVLLSEHGEVK
T5 construct: purchased ActivX Biosciences (KiNativ)
Description: as §1

[6] = tested on: T6, RIPK2; conditions: 2.5 µM; Lys1; VQVAVKHLHIHTPLLDSER
T6 construct: purchased ActivX Biosciences (KiNativ)
Description: as §1

[7] = tested on: T7, AurA; conditions: 2.5 µM
T7 construct: purchased ActivX Biosciences (KiNativ)
Description: as §1

[8] = tested on: CK1d, CK1e; conditions: 2.5 µM; Lys2; DVKPDNFLMGLGKK
Description: as §1

[9] = tested on: T8, NEK1; conditions: 2.5 µM; Lys2; DIKSQNIFLTK
T8 construct: purchased ActivX Biosciences (KiNativ)
Description: as §1

[10] = tested on: T9, Wee1; conditions: 2.5 µM; Lys2; YIHSMSLVHMDIKPSNIFISR
T9 construct: purchased ActivX Biosciences (KiNativ)
Description: as §1

[11] = tested on: T10, CK2a1; conditions: 2.5 µM; Protein Kinase Domain; GGPNIITLADIVKDPVSR
T10 construct: purchased ActivX Biosciences (KiNativ)
Description: as §1

[12] = tested on: T11, CLK2; conditions: 2.5 µM; Lys2; LTHTDLKPENILFVNSDYELTYNLEK
T11 construct: purchased ActivX Biosciences (KiNativ)
Description: as §1

[13] = tested on: ABL, ARG; conditions: 2.5 µM
Description: as §1

[14] = tested on: T12, CaMK1d; conditions: 2.5 µM
T12 construct: purchased ActivX Biosciences (KiNativ)
Description: as §1

[15] = tested on: T13, LYN; conditions: 2.5 µM
T13 construct: purchased ActivX Biosciences (KiNativ)
Description: as §1

[16] = tested on: T14, NEK3; conditions: 2.5 µM; Activation Loop; SKNIFLTQNGK
T14 construct: purchased ActivX Biosciences (KiNativ)
Description: as §1

[17] = tested on: T15, PHKg2; conditions: 2.5 µM; Lys1; ATGHEFAVKIMEVTAER
T15 construct: purchased ActivX Biosciences (KiNativ)
Description: as §1

[18] = tested on: T16, PIP4K2A; conditions: 2.5 µM, ATP
T16 construct: purchased ActivX Biosciences (KiNativ)
Description: as §1

[19] = tested on: Wnk1, Wnk2, Wnk3; conditions: 2.5 µM; Lys2; DLKCDNIFITGPTGSVK
Description: as §1

[20] = tested on: T17, PIK3C2B; conditions: 2.5 µM; ATP; VIFKCGDDLRQDMLTLQMIR
T17 construct: purchased ActivX Biosciences (KiNativ)
Description: as §1

[21] = tested on: T18, MAPKAPK3; conditions: 2.5 µM; ATP Loop; QVLGLGVNGKVLECFHR
T18 construct: purchased ActivX Biosciences (KiNativ)
Description: as §1

[22] = tested on: T19, p38a; conditions: 2.5 µM
T19 construct: purchased ActivX Biosciences (KiNativ)
Description: as §1

[23] = tested on: MARK2, MARK3; conditions: 2.5 µM; Lys2; DLKAENLLLDADMNIK
Description: as §1

[24] = tested on: T20, EphA1; conditions: 2.5 µM; Activation Loop; LLDDFDGTYETQGGKIPIR
T20 construct: purchased ActivX Biosciences (KiNativ)
Description: as §1

[25] = tested on: T21, NDR1; conditions: 2.5 µM
T21 construct: purchased ActivX Biosciences (KiNativ)
Description: as §1

[26] = tested on: T22, SRPK1; conditions: 2.5 µM; Lys2; IIHTDIKPENILLSVNEQYIR
T22 construct: purchased ActivX Biosciences (KiNativ)
Description: as §1

[27] = tested on: RSK1 domain1, RSK2 domain1, RSK3 domain1; conditions: 2.5 µM; Lys2; DLKPENILLDEEGHIK
Description: as §1

[28] = tested on: T23, EphB2; conditions: 2.5 µM; Activation Loop; FLEDDTSDPTYTSALGGKIPIR
T23 construct: purchased ActivX Biosciences (KiNativ)
Description: as §1

[29] = tested on: T24, Erk2; conditions: 2.5 µM; Lys2; DLKPSNLLLNTTCDLK
T24 construct: purchased ActivX Biosciences (KiNativ)
Description: as §1

[30] = tested on: T25, ZC2/TNIK; conditions: 2.5 µM; Lys1; TGQLAAIKVMDVTGDEEEEIKQEINMLKK
T25 construct: purchased ActivX Biosciences (KiNativ)
Description: as §1

[31] = tested on: T26, CDK9; conditions: 2.5 µM
T26 construct: purchased ActivX Biosciences (KiNativ)
Description: as §1

[32] = tested on: T27, ACK; conditions: 2.5 µM
T27 construct: purchased ActivX Biosciences (KiNativ)
Description: as §1

[33] = Activation Loop, LMTGDTYTAHAGAKFPIK
[34] = Activation Loop, EGAKFPIKWTAPEAINFGCFTIK
[35] = Lys1, TVSVAVKCLKPDVLSQPEAMDDFIR

C=CC(=O)Nc1cc(Nc2nccc(-c3cn(C)c4ccccc34)n2)c(OC)cc1N(C)CCN(C)C [Osimertinib, osimertinib, reference compound]
Inhibition [1]: 6.8%
Inhibition ([2]; Lys1, MVHKPSGQIMAVKR): 12.0%
Inhibition ([2]; Lys2, DIKPSNILLDR): 30.7%
Inhibition [3]: -18.1%
Inhibition [4]: -1.3%
Inhibition [5]: -15.5%
Inhibition [6]: 51.7%
Inhibition ([7]; Lys1, FILALKVLFK): -3.3%
Inhibition ([7]; Lys2, DIKPENLLLGSAGELK): 2.6%
Inhibition [8]: 6.2%
Inhibition [9]: -34.8%
Inhibition [10]: 6.4%
Inhibition [11]: -0.558%
Inhibition [12]: 26.6%
Inhibition [13, 33]: 8.4%
Inhibition ([13]; Lys1, YSLTVAVKTLKEDTMEVEEFLK): 4.3%
Inhibition ([14]; Lys1, LFAVKCIPK): -14.3%
Inhibition ([14]; Lys2, DLKPENLLYYSQDEESK): -8.2%
Inhibition [15, 34]: 7.2%
Inhibition ([15]; Lys1, VAVKTLKPGTMSVQAFLEEANLMK): -3.5%
Inhibition [16]: -0.9%
Inhibition [17]: -24.7%
Inhibition ([18]; AKELPTLKDNDFINEGQK): -3.2%
Inhibition ([18]; YIIKTITSEDVAEMHNILK): -14.3%
Inhibition [19]: 11.9%
Inhibition [20]: 1.3%
Inhibition [21]: -14.1%
Inhibition ([22]; Lys2, DLKPSNLAVNEDCELK): 19.9%
Inhibition ([22]; Other, QELNKTIWEVPER): 12.6%
Inhibition [23]: -12.0%
Inhibition [24]: 5.8%
Inhibition ([25]; Lys1, DTGHVYAMKILR): -7.9%
Inhibition ([25]; Lys2, DIKPDNLLLDSK): 12.0%
Inhibition [26]: 2.2%
Inhibition [27]: -33.3%
Inhibition [28]: 1.1%
Inhibition [29]: 1.9%
Inhibition [30]: 19.5%
Inhibition ([31]; ATP Loop, IGQGTFGEVFKAR): 12.0%
Inhibition ([31]; Lys2, DMKAANVLITR): 22.6%
Inhibition ([32]; Activation Loop, KVPFAWCAPESLK): 27.2%
Inhibition [32, 35]: 25.7%

C=CC(=O)Nc1cc(C(=O)Nc2nc3cccc(C)c3n2[C@@H]2CCCCN(C(=O)C=C)C2)cs1 [ZNL-0056]
Inhibition [1]: -14.3%
Inhibition ([2]; Lys1, MVHKPSGQIMAVKR): 5.7%
Inhibition ([2]; Lys2, DIKPSNILLDR): 2.6%
Inhibition [3]: 5.3%
Inhibition [4]: -13.0%
Inhibition [5]: -1.1%
Inhibition [6]: -9.6%
Inhibition ([7]; Lys1, FILALKVLFK): -0.0337%
Inhibition ([7]; Lys2, DIKPENLLLGSAGELK): -15.7%
Inhibition [8]: 10.8%
Inhibition [9]: -5.2%
Inhibition [10]: 13.4%
Inhibition [11]: 6.3%
Inhibition [12]: 9.5%
Inhibition [13, 33]: -3.8%
Inhibition ([13]; Lys1, YSLTVAVKTLKEDTMEVEEFLK): 17.1%
Inhibition ([14]; Lys1, LFAVKCIPK): 11.3%
Inhibition ([14]; Lys2, DLKPENLLYYSQDEESK): 2.0%
Inhibition [15, 34]: -13.3%
Inhibition ([15]; Lys1, VAVKTLKPGTMSVQAFLEEANLMK): -8.7%
Inhibition [16]: -5.3%
Inhibition [17]: -4.2%
Inhibition ([18]; AKELPTLKDNDFINEGQK): -0.9%
Inhibition ([18]; YIIKTITSEDVAEMHNILK): -4.5%
Inhibition [19]: -34.6%
Inhibition [20]: -9.6%
Inhibition [21]: 4.1%
Inhibition ([22]; Lys2, DLKPSNLAVNEDCELK): -10.4%
Inhibition ([22]; Other, QELNKTIWEVPER): -5.0%
Inhibition [23]: 9.0%
Inhibition [24]: -5.3%
Inhibition ([25]; Lys1, DTGHVYAMKILR): 6.1%
Inhibition ([25]; Lys2, DIKPDNLLLDSK): 5.7%
Inhibition [26]: 2.6%
Inhibition [27]: -1.0%
Inhibition [28]: -8.5%
Inhibition [29]: -24.2%
Inhibition [30]: 32.8%
Inhibition ([31]; ATP Loop, IGQGTFGEVFKAR): -9.9%
Inhibition ([31]; Lys2, DMKAANVLITR): 16.6%
Inhibition ([32]; Activation Loop, KVPFAWCAPESLK): -21.4%
Inhibition [32, 35]: -6.2%
